The text below walks through data of publication PMC9785144, “Metal Coordination and Biological Screening of a Schiff Base Derived from 8-Hydroxyquinoline and Benzothiazole” (Pharmaceutics, 2022).

Read-outs that look alike come from different tables or passages of the source.

In data set [1] the test system is HCT-116, A375, CT-26, B16F10 and HaCaT cell lines. Briefly: Preliminary MTT antiproliferative screening on cell line panel. The note with it: 20 and 40 μM, 48 h.
Procedure: The MTT [32] and Guava ViaCount assays [33, 34] were used to assess cell viability in the absence (negative control) or presence of increasing concentrations of [Ni(HL)(acetate)], [Ru(HL)Cl(DMSO)] and 5-FU (positive control). Briefly, cells were plated at a concentration of 5 × 10^4 cells/mL in 96-well plates (200 μL/well) and cultured for 24 h in the culture conditions described above. Afterwards, supernatant was removed, and cells were incubated with [Ni(HL)(acetate)] and [Ru(HL)Cl(DMSO)] at concentrations ranging from 0.5 to 40 μM or from 0.5 to 100 μM for the 5-FU (positive control). Negative controls were cells maintained in complete culture medium. After 48 h, culture medium was discarded, cells were washed twice with PBS and 50 μL of MTT at 0.5 mg/mL in incomplete medium was added to all wells. After a 2 to 3 h incubation period at 37 °C and 5% CO2 environment, 100 μL DMSO was added to each well to solubilise the formazan crystals, and absorbance was measured at 570 nm using a microplate reader Model 680 (Bio-Rad, CA, USA). Between three to four independent experiments were carried out, with six replicates per condition. GraphPad Prism®8 (GraphPad Software, San Diego, CA, USA) was used to analyse cell proliferation and values were plotted and fit to a standard log dose-response curve. The IC50 values were calculated using Equation (2) [35]:log IC50 = log X1 + {[(Y1 − (Y0)/2)]/(Y1 − Y2)} × (log X2 − log X1)(2) where, Y0/2 is the half-cell density of the negative control; Y1 is the cell density above Y0/2; X1 is the concentration corresponding to Y1; Y2 is the cell density below Y0/2; X2 is the concentration corresponding to Y2. The IC50 was determined by linear interpolation between X1 and X2.
Thus, to evaluate the antiproliferative properties of the newly synthetised metal complexes, a preliminary screening was performed using human (HCT-116 and A375) and murine (CT-26 and B16F10) colon cancer and melanoma cell lines, respectively. […]
The nature of data set [2]: UV-vis spectrophotometric titration for proton dissociation constants. Particulars: 60% (v/v) DMSO/H2O solvent mixture, 60% (v/v) DMSO/H2O, I = 0.10 M (KCl), 25 °C. Type of data set: physicochemical. The procedure:
The pH-potentiometric titrations for the calibration of the electrode system were performed in 30% (v/v) and 60% (v/v) DMSO/H2O solvent mixtures using 0.10 M KCl background electrolyte at 25.0 ± 0.1 °C as described in our previous works.
A Thermo Evolution 220 spectrophotometer was used to record the UV-visible (UV-vis) spectra in the 260 to 750 nm window. The path length was varied between 2 and 50 mm. As a result of the limited solubility of the compounds in water, the spectrophotometric titrations were performed to determine the proton dissociation constants (pKa) of the ligand and its complex at 5 μM concentration using 5 cm path length. Due to the light sensitivity of the studied compounds, the samples were covered and were kept in the dark during the titrations. The starting sample volume was 50 mL. These titrations were performed in the pH range 2.0–12.5 (30% (v/v) DMSO/H2O) and 2.0–14.0 (60% (v/v) DMSO/H2O). Samples were deoxygenated by bubbling purified argon through them for approximately 10 min prior to the measurements and argon was also passed over the solutions during the spectrophotometric titrations. Calculation of the proton dissociation constants was performed with the computer program PSEQUAD [28].
Titrations were performed first in 30% (v/v) DMSO/H2O mixture due to the limited water solubility of the ligand. The sample was protected from light and, for a given portion of the sample, the UV-vis spectrum was recorded only once. […] Following this experiment, the titration was repeated in 60% (v/v) DMSO/H2O mixture (Figure 7), and no precipitation was found in the whole pH range (1.73−13.67) under this condition. However, only three deprotonation steps were observed, most probably because one of the deprotonation steps was already completed at the starting pH.
To elucidate the pKa assignment, 2-hydrazinobenzothiazole (considered as a fragment of the title ligand) was titrated under similar conditions to monitor the spectral changes during the deprotonation of the benzothiazole moiety.

`NNc1nc2ccccc2s1` [2-Hydrazinobenzothiazole, 2-hydrazinobenzothiazole, reference compound]: the “antiproliferative / cytotoxic effect in preliminary screening” value in data set [1] was “no effect”. The pKa stood at 3.35 ± 0.03 in data set [2] (read-out: pKa2), 10.35 ± 0.03 in data set [2] (read-out: pKa3) and 12.86 ± 0.03 in data set [2] (read-out: pKa4).
As to `O=Cc1ccc2cccc(O)c2n1` [HQ2CHO, 2-carbaldehyde-8-hydroxyquinoline], the “antiproliferative / cytotoxic effect in preliminary screening” value in data set [1] is “cytotoxicity against the human melanoma and colon cancer cell lines”.
